Columns and labels:
PMA-induced ear swelling = experiment: PMA-induced mouse ear swelling (topical anti-inflammatory activity); format: in vivo, CD-1 (Crl.) derived male mice; details: topical 3 mg/ear applied 30 min before and 15 min after PMA, measured 6 hours after PMA, >=30% considered significant
Protocol: A compound can be tested for topical anti-inflammatory activity by measuring the degree of inhibition of edema produced in a mouse ear that has been irritated by the application of a solution of a phorbol ester. [2-(7-Trifluoromethyl-quinolin-4-ylamino)-phenyl]-acetic acid sodium salt was tested for its anti-inflammatory activity as follows: Groups of 6 CD-1 (Crl.) derived male mice weighing 24±2 g were used. Phorbol 12-Myristate 13-Acetate (PMA 4 μg in 20 μl of Acetone) was applied topically to the anterior and posterior surfaces of the right ear to each animal. Vehicle (Ethanol:Acetone/1:1, 20 μl/ear) and [2-(7-Trifluoromethyl-quinolin-4-ylamino)-phenyl]-acetic acid sodium salt at 3 mg/ear were each applied 30 minutes before and 15 minutes after Phorbol 12-Myristate 13-Acetate challenge. Indomethacin (3 mg in 20 μl/ear of acetone:ethanol/1:1) as the positive control was similarly applied at the same timing. Ear swelling was then measured by a Dyer model micrometer gauge at 6 hours after Phorbol 12 Myristate 13-Acetate application as an index of inflammation. Percent inhibition was calculated according to the formula: ([Ic−It]/Ic)×100%, where Ic and It refer to increase of ear thickness (mm) in control and treated mice, respectively. Inhibition of 30 percent or more (≧30%) in ear swelling is considered significant anti-inflammatory activity.
[2-(7-Trifluoromethyl-quinolin-4-ylamino)-phenyl]-acetic acid sodium salt caused significant inhibition (80%) of the PMA-induced ear swelling vs vehicle control. […] When [2-(7-Trifluoromethyl-quinolin-4-ylamino)-phenyl]-acetic acid methyl ester was tested in this assay, the inhibition of ear swelling was not significant (20% inhibition).

[1] = biological target: T1, Human recombinant Cyclooxygenase-2 (Homo sapiens, UniProt P35354); experiment: COX-2 inhibition, human recombinant enzyme (PGE2 formation, EIA); format: biochemical; details: human recombinant COX-2 expressed in Sf21 cells; 7 concentrations 0.01-10 μM; 0.3 μM arachidonic acid
T1 construct: purchased Sigma C-0858; host or cells: Sf21 cells
T1 sequence (P35354 18-604): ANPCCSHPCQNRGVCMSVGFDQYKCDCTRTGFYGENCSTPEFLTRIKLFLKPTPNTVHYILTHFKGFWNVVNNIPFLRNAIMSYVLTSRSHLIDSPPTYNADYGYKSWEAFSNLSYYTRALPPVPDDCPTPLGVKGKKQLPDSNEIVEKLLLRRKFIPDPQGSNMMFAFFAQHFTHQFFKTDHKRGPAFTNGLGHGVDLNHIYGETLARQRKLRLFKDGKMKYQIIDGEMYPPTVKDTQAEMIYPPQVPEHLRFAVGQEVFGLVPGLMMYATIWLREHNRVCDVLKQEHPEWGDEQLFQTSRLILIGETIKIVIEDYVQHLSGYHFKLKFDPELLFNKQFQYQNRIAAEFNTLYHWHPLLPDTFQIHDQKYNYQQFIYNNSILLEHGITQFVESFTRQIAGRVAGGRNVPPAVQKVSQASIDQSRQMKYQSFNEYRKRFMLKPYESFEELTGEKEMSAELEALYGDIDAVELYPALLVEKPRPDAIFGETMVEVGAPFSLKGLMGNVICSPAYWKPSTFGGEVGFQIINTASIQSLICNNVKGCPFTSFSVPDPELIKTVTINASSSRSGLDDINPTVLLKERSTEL
Protocol: Compounds can be tested for their ability to inhibit the COX-2 enzyme by the following procedure: Human recombinant Cyclooxygenase-2 expressed in Sf21 cells (Sigma, C-0858) is used. Test compound and/or vehicle is preincubated with 0.11 U cyclooxygenase-2, 1 mM reduced GSH, 500 μM phenol and 1 μM hematin for 15 minutes at 37° C. in Tris-HCl buffer pH 7.7. The reaction is initiated by addition of 0.3 μM arachidonic acid and terminated after 5 minutes by further addition of 1 N HCl. Following centrifugation, substrate conversion to PGE 2 is measured by an Amersham EIA kit.
[2-(7-Trifluoromethyl-quinolin-4-ylamino)-phenyl]-acetic acid hydrochloride was screened at 7 concentrations to test for inhibition of the enzyme: 0.01 uM, 0.03 μM, 0.1 μM, 0.3 μM, 1 μM, 3 μM and 10 μM.

COX-1 enzyme = biological target: T2, COX-1 enzyme (Homo sapiens, UniProt P23219); experiment: COX-1 inhibition in human platelets (PGE2 formation, EIA); format: cell-based
T2 construct: Human platelets are used; endogenous in cells; host or cells: human platelets
Protocol: Compounds can be tested for their ability to inhibit the COX-1 enzyme by the following procedure: Human platelets are used. Test compound and/or vehicle is incubated with cells (5×10^7/ml) in modified HEPES buffer pH 7.4 for 15 minutes at 37° C. The reaction is initiated by addition of 100 μM arachidonic acid for another 15 minute incubation period and terminated by further addition of 1 N HCl. An aliquot is removed and the amount of PGE 2 formed is determined spectrophotometrically by enzyme immunoassay (“EIA”) kit.
[2-(7-Trifluoromethyl-quinolin-4-ylamino)-phenyl]-acetic acid hydrochloride was screened at 6 concentrations to test for inhibition of the enzyme: 0.1 μM, 0.3 μM, 1 μM, 3 μM, 10 μM and 30 μM. [2-(7-Trifluoromethyl-quinolin-4-ylamino)-phenyl]-acetic acid hydrochloride inhibited the COX-1 enzyme with an IC50 of <0.1 μM in this assay.

T2 sequence (P23219 24-599): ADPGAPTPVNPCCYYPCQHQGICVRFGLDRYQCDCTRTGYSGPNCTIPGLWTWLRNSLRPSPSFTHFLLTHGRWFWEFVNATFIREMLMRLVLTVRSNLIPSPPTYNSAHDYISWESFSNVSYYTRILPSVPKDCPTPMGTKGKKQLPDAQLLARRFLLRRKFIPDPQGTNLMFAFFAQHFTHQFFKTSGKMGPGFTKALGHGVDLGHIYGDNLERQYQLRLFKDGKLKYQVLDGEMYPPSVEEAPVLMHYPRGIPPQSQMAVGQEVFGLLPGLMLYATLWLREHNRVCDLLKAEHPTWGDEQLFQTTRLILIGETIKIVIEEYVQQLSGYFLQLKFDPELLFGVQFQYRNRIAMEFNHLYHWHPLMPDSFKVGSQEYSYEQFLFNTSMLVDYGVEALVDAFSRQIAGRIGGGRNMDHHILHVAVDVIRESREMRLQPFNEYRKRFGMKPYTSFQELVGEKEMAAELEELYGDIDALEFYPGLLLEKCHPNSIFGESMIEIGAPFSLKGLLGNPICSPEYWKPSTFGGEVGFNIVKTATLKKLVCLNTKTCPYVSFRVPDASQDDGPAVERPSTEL

Row | SMILES | melting point | inhibition of PMA-induced ear swelling vs vehicle control (PMA-induced ear swelling) | IC50 [1] | IC50 (COX-1 enzyme; screened at 6 concentrations 0.1-30 μM, 100 μM arachidonic acid) | IC50 (COX-1 enzyme; tested separately at 3 concentrations (0.01, 0.03 and 0.1 μM))
1 | Cl.O=C(O)Cc1ccccc1Nc1ccnc2cc(Cl)ccc12 | 113 to 116 °C |  |  |  | 
2 | COc1ccc2c(c1)c(CC(=O)O)c(C)n2C(=O)c1ccc(Cl)cc1 [Indomethacin, reference compound] |  | 77% |  |  | 
3 | Cl.O=C(O)Cc1ccccc1Nc1ccnc2cc(C(F)(F)F)ccc12 [[2-(7-Trifluoromethyl-quinolin-4-ylamino)-phenyl]-acetic acid hydrochloride] | 103 to 104 °C | 75% | 61 nM | < 100 nM | 81 nM
4 | COC(=O)Cc1ccccc1Nc1ccnc2cc(C(F)(F)F)ccc12 [[2-(7-Trifluoromethyl-quinolin-4-ylamino)-phenyl]-acetic acid methyl ester] |  | 20% |  |  | 
5 | O=C([O-])Cc1ccccc1Nc1ccnc2cc(C(F)(F)F)ccc12.[Na+] [[2-(7-Trifluoromethyl-quinolin-4-ylamino)-phenyl]-acetic acid sodium salt] |  | 80% |  |  | 

Reference: patent US20080139611A1, “METHODS OF USING 4-PHENYLAMINOQUINOLINES AS TOPICAL NON-STEROIDAL ANTIINFLAMMATORY COMPOUNDS” (priority 2006, published 2008)
